Results published in EP1180094B1, “FUSED POLYCYCLIC AMINO ACIDS AS PHARMACEUTICAL AGENTS” (WARNER-LAMBERT COMPANY, priority 1999, dated 2000).

Legend:
[1] = system: Carrageenan Induced Thermal Hyperalgesia Model (rat); experiment: Carrageenan induced thermal hyperalgesia model; assay type: in vivo
[2] = system: carrageenan-induced hyperalgesia model; experiment: Carrageenin-induced hyperalgesia, rat paw pressure test (Randall-Selitto); assay type: in vivo; details: dosed orally at 30 mg/kg
Description: Nociceptive pressure thresholds were measured in the rat paw pressure test using an analgesimeter (Randall-Selitto method: Randall L.O. and Selitto J.J., "A method for measurement of analgesic activity on inflamed tissue," Arch. Int. Pharmacodyn., 1957;4:409-419). Male Sprague-Dawley rats (70-90 g) were trained on this apparatus before the test day. Pressure was gradually applied to the hind paw of each rat and nociceptive thresholds were determined as the pressure (g) required to elicit paw withdrawal. A cutoff point of 250 g was used to prevent any tissue damage to the paw. On the test day, two to three baseline measurements were taken before animals were administered 100 µL of 2% carrageenin by intraplantar injection into the right hind paw. […] Animals were dosed with either gabapentin ([…].), morphine (3 mg/kg, s.c.) or saline at 3.5 hours after carrageenin and nociceptive thresholds were examined at 4, 4.5, and 5 hours postcarrageenin.
(R)-2-Aza-spiro[4.5]decane-4-carboxylic acid hydrochloride was tested in the above carrageenan-induced hyperalgesia model. The compound was dosed orally at 30 mg/kg, and 1 hour postdose gave a percent of maximum possible effect (MPE) of 53%. At 2 hours postdose, it gave only 4.6% of MPE.

Compound: NCC1(CC(=O)O)Cc2ccccc2C1 [(2-aminomethyl-indan-2-yl)-acetic acid]
- Carrageenan Induced Thermal Hyperalgesia Model (rat). %MPE* at time postdose @30 mg/Kg p.o. ([1]; 1h postdose): 28.5 (1h) %MPE
- Carrageenan Induced Thermal Hyperalgesia Model (rat). %MPE* at time postdose @30 mg/Kg p.o. ([1]; 2h postdose): 10 (2h) %MPE

Compound: Cl.O=C(O)[C@H]1CNCC12CCCCC2 [(R)-2-Aza-spiro[4.5]decane-4-carboxylic acid hydrochloride]
- percent of maximum possible effect (MPE) ([2]; 1 hour postdose): 53%
- percent of maximum possible effect (MPE) ([2]; 2 hours postdose): 4.6%
